Laboratory results reported in article PMC12040169 (PLOS Biology, 2025).

assay: in vitro; conditions: human, hela cells, % viability

| Structure (SMILES) | viability at 28.5 h, 10 µM [%] |
| --- | --- |
| O=c1[nH]c(=O)c2cc(S(=O)(=O)N3CCC(c4ccccc4)C3)ccc2[nH]1 (stereo not shown) [CBK286382] | 105 |
| O=c1[nH]c(=O)c2cc(S(=O)(=O)Nc3ccc(Cn4ccnc4)cc3)ccc2[nH]1 [CBK286383] | 105 |
| O=c1[nH]c(=O)c2cc(S(=O)(=O)NCC3CCN(Cc4ccccc4)C3)ccc2[nH]1 (stereo not shown) [CBK286384] | 90 |
| O=c1[nH]c(=O)c2cc(S(=O)(=O)Nc3ccc(Oc4cccnc4)cc3)ccc2[nH]1 [CBK286386] | 99.2 |
| O=c1[nH]c(=O)c2cc(S(=O)(=O)NCC3(c4ccccc4)CCCC3)ccc2[nH]1 [CBK286387] | 112 |
| O=c1[nH]c(=O)c2cc(S(=O)(=O)Nc3cccc(CCc4ccccn4)c3)ccc2[nH]1 [CBK286389] | 97.9 |
| CC(C)C1c2cccn2CCN1S(=O)(=O)c1ccc2[nH]c(=O)[nH]c(=O)c2c1 (stereo not shown) [CBK286391] | 99.6 |
| COc1ccc2c(c1)OC1(CCN(C(=O)C3CCCC3)CC1)CC2O (stereo not shown) [CBK286400] | 84.4 |
| Cc1cc(C2CCCCCN2S(=O)(=O)c2ccc3[nH]c(=O)[nH]c(=O)c3c2)on1 (stereo not shown) [CBK286405] | 93.6 |
| Cn1cc(C2CCCCCN2S(=O)(=O)c2ccc3[nH]c(=O)[nH]c(=O)c3c2)cn1 (stereo not shown) [CBK286406] | 103 |
| Cn1ccc(C2CCCCCN2S(=O)(=O)c2ccc3[nH]c(=O)[nH]c(=O)c3c2)n1 (stereo not shown) [CBK286407] | 71.1 |
| COc1ccc2[nH]c(=O)c(CNc3ccc4c(c3)-c3ccccc3S(=O)(=O)N4)cc2c1 [CBK286409] | 84.2 |
| c1coc(CNc2ncc(-c3ccc4c(c3)OCO4)c(-c3cccs3)n2)c1 [CBK286414] | 93.9 |
| O=C(NCc1cccs1)C1(Cc2ccccc2-c2ccc(F)c(F)c2)CCOCC1 [CBK286417] | 93.2 |
| COc1ccccc1CN1CCC(Cc2ccccc2-c2ccc(C)cc2C)(C(=O)O)CC1 [CBK286419] | 88.4 |
| Cc1nc2cc(-c3nccn3C)nn2c(N2CCN(c3ccc(O)cc3)CC2)c1C [CBK286427] | 92.8 |
| CC(=O)NC1(c2ccccc2F)CCN(c2ncc(-c3ccco3)c(-c3ccco3)n2)CC1 [CBK286428] | 95.3 |
| O=C(NCc1ccc(CO)cc1)[C@@H]1CN(Cc2ccccc2)C[C@H]1C(=O)c1ccc(F)cc1 [CBK286430] | 97.8 |
| CC(=O)N1CCc2sccc2C1c1ccccc1NCc1ccoc1 (stereo not shown) [CBK286432] | 91.6 |
| CC(=O)N1CCc2sccc2C1c1ccc(NC(=O)c2ccc(F)cc2)cc1 (stereo not shown) [CBK286434] | 89 |

| Structure (SMILES) | viability at 28.5 h, 10 µM [%] |
| --- | --- |
| COCC(=O)N1CCc2sccc2C1c1ccc(NC(=O)c2ccc(F)cc2)cc1 (stereo not shown) [CBK286435] | 93.8 |
| O=C(c1ccsc1)N1CCC2(CC1)CN(Cc1ccccc1)CC(c1ccccc1)O2 (stereo not shown) [CBK286438] | 94.4 |
| Cc1nccc(-c2cccc(NC3CCN(c4ccc5c(c4)OCCO5)CC3)c2)n1 [CBK286439] | 97.1 |
| Cc1cccc(CN2CCN(c3ccccc3C(O)c3nccn3C)CC2)c1 (stereo not shown) [CBK286441] | 88.5 |
| COc1cccc(CNc2ccc(C3c4ccsc4CCN3C(C)=O)cc2)c1 (stereo not shown) [CBK286443] | 109 |
| COCC(=O)N1CCc2sccc2C1c1ccc(NCc2ccc(F)cc2)cc1 (stereo not shown) [CBK286445] | 89.7 |
| COCC(=O)N1CCc2sccc2C1c1ccc(NCc2ccc(C)o2)cc1 (stereo not shown) [CBK286447] | 96.3 |
| CC(O)CN(Cc1ccc(-c2ccccc2)cc1)Cc1ccc2c(c1)OCO2 (stereo not shown) [CBK286450] | 94.1 |
| CCOc1ccc(CNc2ccc(C3c4ccsc4CCN3C(C)=O)cc2)cc1 (stereo not shown) [CBK286451] | 96.3 |
| CCOc1ccc(CNc2ccc(C3c4ccsc4CCN3C(=O)COC)cc2)cc1 (stereo not shown) [CBK286453] | 85.3 |
| CC1Cc2cc(C(O)CN3CCC4CCCCC4C3)ccc2N1S(C)(=O)=O (stereo not shown) [CBK286456] | 116 |
| CC(=O)N1CCCc2cc(C(O)CN3CCN(c4cccc(C)c4)CC3)ccc21 (stereo not shown) [CBK286457] | 93.1 |
| COCC(=O)N1CCc2sccc2C1c1ccc(NCc2ccc(OC)cc2)cc1 (stereo not shown) [CBK286458] | 85.1 |
| CCOc1ccccc1CNc1ccc(C2c3ccsc3CCN2C(C)=O)cc1 (stereo not shown) [CBK286459] | 104 |
| Nc1ncc(CN(Cc2ccco2)CC(O)Cn2c3ccccc3c3ccccc32)cn1 (stereo not shown) [CBK286462] | 88.6 |
| O=c1[nH]c2c(cc1CNc1cccc(O)c1)c(-c1cccc(F)c1)nn2-c1ccccc1 [CBK286463] | 93 |
| COc1ccc(C(=O)Nc2ccc(C3c4ccsc4CCN3C(C)=O)cc2)cc1 (stereo not shown) [CBK286465] | 85 |
| COCC(=O)N1CCc2sccc2C1c1ccc(NC(=O)c2cccc(F)c2)cc1 (stereo not shown) [CBK286468] | 102 |
| COCC(=O)N1CCc2sccc2C1c1ccc(NC(=O)c2ccccc2F)cc1 (stereo not shown) [CBK286469] | 87.5 |
| COc1ccc(-c2cccc(CN(Cc3ccc4c(c3)OCO4)CC(C)O)c2)cc1 (stereo not shown) [CBK286472] | 107 |

| Structure (SMILES) | viability at 28.5 h, 10 µM [%] |
| --- | --- |
| CCOc1cc2c(cc1CN(Cc1ccc3c(c1)OCO3)CC(C)O)CCC2 (stereo not shown) [CBK286474] | 87.2 |
| CCC(=O)N1CCCc2cc(C(O)CN3CCN(c4cccc(OC)c4)CC3)ccc21 (stereo not shown) [CBK286476] | 114 |
| COc1ccc([C@H]2CN(Cc3ccccc3)C[C@@H]2NC(=O)CCc2ccco2)cc1 [CBK286477] | 87.6 |
| COc1ccc([C@H]2CN(Cc3ccccc3)C[C@@H]2NC(=O)c2ccco2)cc1OC [CBK286478] | 88.4 |
| COc1ccc(OC)c([C@@H]2CN(Cc3ccccc3)C[C@H]2NC(=O)c2ccco2)c1 [CBK286479] | 96.3 |
| CCC(=O)N1CCCc2cc(C(O)CN3CCN(c4ccc(F)cc4)CC3)ccc21 (stereo not shown) [CBK286480] | 95.3 |
| CC(=O)N1CCCc2cc(C(O)CN3CCC(O)(c4ccc(F)cc4)CC3)ccc21 (stereo not shown) [CBK286481] | 88.1 |
| COc1ccccc1C1(O)CCN(CC(O)c2ccc3c(c2)OCCO3)CC1 (stereo not shown) [CBK286482] | 90.1 |
| COc1ccc(CN(Cc2ccccc2OC)[C@@H]2COC[C@H]2c2ccc(F)cc2)cc1 [CBK286484] | 105 |
| COc1ccc(CN(Cc2ccsc2)[C@@H]2COC[C@H]2c2ccc(F)cc2)cc1 [CBK286485] | 112 |
| CN(Cc1ccccc1)C(=O)c1c[nH]nc1C1CCCN(CC2CCCCC2)C1 (stereo not shown) [CBK286489] | 94.4 |
| CN(Cc1ccccc1)C(=O)c1c[nH]nc1C1CCCN(Cc2cccc(Cl)c2)C1 (stereo not shown) [CBK286490] | 91 |
| CN(C(=O)c1c[nH]nc1C1CCCN(Cc2cc3ccccc3o2)C1)C1CCCCC1 (stereo not shown) [CBK286492] | 102 |
| O=C(CC1CCN(Cc2cccc(C(F)(F)F)c2)CC1)N(Cc1ccccn1)C1CC1 [CBK286494] | 101 |
| Cc1cc(C)nc(Nc2cccc(C3CCCN3C(=O)CCOc3ccccc3C)n2)n1 (stereo not shown) [CBK286496] | 90.7 |
| Cc1nc(C2(O)CCCN(C3CCCCC3)CC2)sc1COc1ccc(F)c(F)c1 (stereo not shown) [CBK286499] | 86.4 |
| COc1ccc(CC(=O)N2CCC(c3cccc(Cc4cccc(F)c4)n3)CC2)cc1 [CBK286504] | 100 |
| O=C(CCc1ccc(F)cc1)N1CCCC(c2cccc(Cc3ccccc3F)n2)C1 (stereo not shown) [CBK286512] | 91.2 |
